In patent US20260217983A1, “SULFONIUM SALT PHOTOINITIATORS AND METHODS OF LED CURING A COMPOSITION WITH SAID SULFONIUM SALT PHOTOINITIATORS” (ARKEMA FRANCE, priority 2022, published 2026):

Tests used:
[1] = FTIR-ATR cure test of cationic formulations (epoxide, oxetane conversion, 1100 cm^-1 peak growth); conditions: 405 nm, cationic systems
Procedure: Matrixes: In a 1000 mL of metal can, formulation matrix was charged according to the percentage in Table 12. The 1000-1005 g mixture of each matrix sample was prepared and mixed by mechanical mixer for about 1 hour around 60° C. until the solution became clear. Formulations: In a white max 50 jar from FlackTek Inc., photoinitiator and propylene carbonate were loaded at first, mixed by hand with stainless steel spatula, placed in 60° C. oven for about 1 h, mixed again until it became clear. Then, formulation matrix was charged according to the percentage in one of Table 13 to 21. The […]-52.60 g mixture of each sample was prepared and mixed for 3 minutes at 3000 RPM in Speed Mixer from FleackTec Inc. Then, all jars were placed in 60° C. oven for about 2 h, taken out and immediately mixed for another 2 minutes until the solution became clear.
A Fourier Transform Infrared (FTIR) with an Attenuated Total Reflection (ATR) setup was used. All polymerization rate measurements were performed using Nicolet iS50 FT-IR Spectrometer from Thermo Scientific, equipped with a standard DLaTGS detector. A lamp holder for the ART platform of FTIR unit can be customized and printed from Arkema N3xtDimention® engineered resin N3D-TOUGH784 in order to ensure precisely fit of a 365 nm lamp Accucure ULM-2-365 or a 405 nm lamp Accucure ULM-2-405 from Digital Light Labs. On the bottom of this lamp holder, a dry air channel is built in to allow air uniformly blowing over sample surface, the gas flow rate can be controlled over a rotameter. The LED light was manually triggered by Ultraviolet illumination & Measurement System. LED light exposure can be programed by AccuCure software. For measurement, 25 μL of liquid sample was placed in the center of an ATR crystal. 3 mil of thin film was prepared by a customized coating applicator (3 mil WFM, G1046 from BYK). The LED lamp with holder was place on the top of ART platform. Then FTIR scan was initiated to collect liquid IR spectrum at first. Each IR spectrum of a specific exposure time at 10 mW/cm^2 of LED light were collected. Measurements of acrylate conversion were taken at the peak height under the reference peak around 1727 cm^−1; the acrylate peak of SR833S at approximately 1407 cm^−1, the epoxide peak of UviCure S105 at approximately 790 cm^−1, and the oxetane peak of UViCure S130 at approximately 970 cm^−1 were also measured. Since the ring opening of both epoxide and oxetane generated C—O—C bond, the growth of C—O—C IR peak height at ~1100 cm^−1 was monitored as well. The resulting of peak 1100 cm^−1 growth rate could be calculated to assess total cationic cure speed. Peak heights were determined using the same baseline where a baseline is chosen to be the two lowest points between 600 cm^−1 and 1800 cm^−1. The peak height under the peak and above the baseline was then determined. The integration limits for liquid and the cured sample are not identical but are similar, especially for the reference peak.
The ratios of the acrylate peak height, epoxide peak height, ring opening peak height from both epoxide and oxetane to the reference peak height were determined for both the liquid and the cured samples. Degree of cure or conversion or peak growth rate, expressed as percentage reacted acrylate or epoxide or ring opening of both epoxide and oxetane, was calculated from the equation below: […]
Where Rliq is the peak height ratio of the liquid sample and Rc is the peak height ratio of the LED cured sample. The resulting acrylate and epoxide conversions or C—O—C growth rates were collected and listed in Tables 13 to 21, plotted in FIG. 1 to 8 and FIG. 10.

[2] = Real time FT-IR curing performance at 405 nm in neat TMPTA; conditions: 20 μm thickness, laminated; for Acrylate Polymerization rate Rp/[M0]*100: LED @405 nm (110 W/cm^2); for Acrylate Final conversion: LED @405 nm (110 mW/cm^2)
Procedure: The curing performance of individual products prepared above was assessed using real time FT-IR measurement. The photoinitiators were dissolved either in neat trimethylolpropane triacrylate (TMPTA; available as SR351 from Sartomer) or in a 1:1 (w/w) mixture of TMPTA and UViCure S105 as indicated, applied onto the FT-IR measurement plate, laminated to prevent oxygen inhibition, and irradiated with the indicated LED light source. For the epoxy component, the polymerization rate and final reactive group conversion were determined by monitoring the change of the relevant infrared band near 900 cm^−1 corresponding to an epoxide ring. For the acrylate component, the C═C stretch band near 1625 cm^−1 was used.

[3] = Belt curing performance (thumb-twist depth cure) in hybrid acrylate/epoxy resin; conditions: for Cure speed in hybrid acrylate/epoxy resin: 24 μm film, under air, PI 2 wt %
Procedure: The photoinitiators were dissolved either in neat UViCure S105E resin or a hybrid acrylate/epoxy resin (prepared by mixing 60 wt parts UViCure S105E, 15 wt parts UViCure S130 and 25 wt parts SR492; all product are available from Sartomer). Formulations were prepared by combining all materials in the given proportions and then stirring at 30-40° C. until the samples were fully homogeneous; the formulations were then allowed to cool to room temperature. For all experiments, the formulations were cured on Leneta Form 3N-31 gloss finish paper at 6 μm and 24 μm film thickness using a belt-cure instrument; the films were prepared using a K-bar. All films were then cured under an LED lamp at a given belt speed. ‘Depth cure’ for each formulation was assessed using the ‘thumb-twist’ test (where no visible mark is made when a thumb is pressed down firmly onto the coating with a twisting motion), and from the belt speed; the calculated cure speed (in m/min) is given.

[4] = Transmittance at 0.01% w/v in propylene carbonate; type: physicochemical
Procedure: The samples were prepared at 0.01% w/v in propylene carbonate.

[5] = Molar extinction coefficient in acetonitrile; type: physicochemical
Procedure: The curing performance of individual products prepared above was assessed using real time FT-IR measurement. The photoinitiators were dissolved in cycloaliphatic epoxy resin UViCure S105 (available from Sartomer) at the indicated wt % loading, applied onto the FT-IR measurement plate and irradiated with the indicated LED light source. The polymerization rate and final reactive group conversion were determined by monitoring the change of the relevant infrared band near 900 cm^−1 corresponding to an epoxide ring during irradiation. The molar extinction coefficients for the photoinitiator products (ε, expressed in M^−1 cm^−1) were determined in acetonitrile at 10^-3 M or 10^-5 M concentration.

[6] = Thermal stability by DSC in TMPTA resin; type: physicochemical; conditions: DSC at 10° C./min, loading 1 wt %
Procedure: (§1) Formulations comprising the photoinitiators and neat UViCure S105E resin and/or TMPTA resin were prepared as described at example 2.

[7] = Thermal stability by DSC in TMPTA/UViCure S105E (1:1) hybrid resin; type: physicochemical; conditions: DSC at 10° C./min, loading 1 wt %
Procedure: as §1

[8] = Thermal stability by DSC in UViCure S105E resin; type: physicochemical; conditions: DSC at 10° C./min, loading 1 wt % (Omnicat BL550 4 wt %; Speedcure 938/CPTX 1/0.5 wt %)
[9] = LED 365 nm, 100% intensity (=70.1 mJ/cm^2), belt speed 40 m/min
[10] = LED 395 nm, 80 m/min, 50% intensity (=36.9 mJ/cm^2)

Structure (SMILES)	epoxide, oxetane and total cationic cure compared with Omnicat550 and SC992 [1]	Acrylate Polymerization rate Rp/[M0]*100 [2]	Acrylate Final conversion [2]	Cure speed in hybrid acrylate/epoxy resin [3, 9]	Cure speed in hybrid acrylate/epoxy resin [3, 10]	% Transmittance at 355 nm [4]	% Transmittance at 420 nm [4]	ε at 365 nm [5]	ε at 385 nm [5]	cationic cure compared with 2 (comp.) or 4 (comp.) [1]	onset temperature of thermal polymerisation [6]	onset temperature of thermal polymerisation [7]	onset temperature of thermal polymerisation [8]	belt cure speed compared with photoinitiator 1 ([3]; at 80 m/min in hybrid acrylate/epoxy resin at both 365 nm and 395 nm)
CCc1cc(CC)c2sc3ccc([S+](c4ccc(C)cc4)c4ccc(C(=O)c5ccccc5)cc4)cc3c(=O)c2c1 (stereo not drawn) [Photoinitiator 4, (4-benzoylphenyl)(5,7-diethyl-9-oxo-9H-thioxanthen-2-yl)(4-methylphenyl)sulfonium Hexafluorophosphate]	better epoxide cure, oxetane cure as well as total cationic cure than both Omnicat550 and SC992	5.70 s⁻¹	64%	17.8 m/min	15.1 m/min	6.8%	83.3%	13154 M⁻¹ cm⁻¹	13649 M⁻¹ cm⁻¹					
CCCOc1ccc(Cl)c2c(=O)c3cc(-[s+]4c5ccccc5c(=O)c5c(Cl)ccc(OCCC)c54)ccc3sc12 (stereo not drawn) [Photoinitiator 5, 1-chloro-10-(8-chloro-9-oxo-5-propoxy-9H-thioxanthen-2-yl)-9-oxo-4-propoxy-9H-thioxanthen-10-ium Hexafluorophosphate]	better epoxide cure, oxetane cure as well as total cationic cure than both Omnicat550 and SC992	2.01 s⁻¹	51%	40.0 m/min	80.0 m/min	0.8%	64.8%	37326 M⁻¹ cm⁻¹	23429 M⁻¹ cm⁻¹	performed slightly better than 2 (comp.) or 4 (comp.)	165 °C	120 °C	~214° ° C.	superior cure speed
CC(C)c1ccc2sc3ccc(-[s+]4c5ccccc5c(=O)c5cc(C(C)C)ccc54)cc3c(=O)c2c1 (stereo not drawn) [Photoinitiator 1, 9-oxo-10-[9-oxo-7-(propan-2-yl)-9H-thioxanthen-2-yl]-2-(propan-2-yl)-9H-thioxanthen-10-ium hexafluorophosphate]	better epoxide cure, oxetane cure as well as total cationic cure than both Omnicat550 and SC992	3.43 s⁻¹	38%	20.0 m/min	40.0 m/min	8.0%	90.3%	23380 M⁻¹ cm⁻¹	23514 M⁻¹ cm⁻¹	performed slightly better than 2 (comp.) or 4 (comp.)	150 °C	133 °C	~220° ° C.	
Cc1ccc([S+](c2ccc(C(=O)c3ccccc3)cc2)c2ccc3sc4ccc(C(C)C)cc4c(=O)c3c2)cc1 (stereo not drawn) [Photoinitiator 2, (4-benzoylphenyl)(4-methylphenyl)[9-oxo-7-(propan-2-yl)-9H-thioxanthen-2-yl]sulfonium Hexafluorophosphate]	better epoxide cure, oxetane cure as well as total cationic cure than both Omnicat550 and SC992	4.58 s⁻¹	53%	11.1 m/min	16.4 m/min	19.7%	94.3%	14201 M⁻¹ cm⁻¹	14921 M⁻¹ cm⁻¹		170 °C	117 °C	~240° ° C.	
